Measurements published in patent US20240208992A1, “MACROCYCLES AS CFTR MODULATORS” (Idorsia Pharmaceuticals Ltd, priority 2021, published 2024).

Molecular target: human F508del-CFTR (Homo sapiens, UniProt P13569, DEL508-508)
Assay: F508del-CFTR cell surface expression (corrector activity), DiscoveRx ß-galactosidase complementation chemiluminescence assay in recombinant U2OS cell line;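 note: U2OS cells co-expressing ProLink-tagged F508del-CFTR and a membrane-anchored enzyme acceptor, where more surface CFTR restores β-galactosidase activity measured by chemiluminescence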
Details: for EC50: EC50, F508del-CFTR cell surface expression; for Emax: U2OS
[1] = U2OS cells, 16h compound incubation, geomean values
[2] = in relation to Emax of corrector lumacaftor (=100%), arithmetic mean values
[3] = U2OS cells, 16h compound incubation, geomean of several measurements
[4] = in relation to the Emax of the corrector lumacaftor (=100%), U2OS cells, 16h compound incubation, arithmetic mean
[5] = U2OS cell line, 16h compound incubation, geomean values
[6] = in relation to the Emax of the corrector lumacaftor (=100%), U2OS cell line, 16h compound incubation, arithmetic mean values

Sequence of human F508del-CFTR (P13569 with tags, fused parts or gaps DEL508-508): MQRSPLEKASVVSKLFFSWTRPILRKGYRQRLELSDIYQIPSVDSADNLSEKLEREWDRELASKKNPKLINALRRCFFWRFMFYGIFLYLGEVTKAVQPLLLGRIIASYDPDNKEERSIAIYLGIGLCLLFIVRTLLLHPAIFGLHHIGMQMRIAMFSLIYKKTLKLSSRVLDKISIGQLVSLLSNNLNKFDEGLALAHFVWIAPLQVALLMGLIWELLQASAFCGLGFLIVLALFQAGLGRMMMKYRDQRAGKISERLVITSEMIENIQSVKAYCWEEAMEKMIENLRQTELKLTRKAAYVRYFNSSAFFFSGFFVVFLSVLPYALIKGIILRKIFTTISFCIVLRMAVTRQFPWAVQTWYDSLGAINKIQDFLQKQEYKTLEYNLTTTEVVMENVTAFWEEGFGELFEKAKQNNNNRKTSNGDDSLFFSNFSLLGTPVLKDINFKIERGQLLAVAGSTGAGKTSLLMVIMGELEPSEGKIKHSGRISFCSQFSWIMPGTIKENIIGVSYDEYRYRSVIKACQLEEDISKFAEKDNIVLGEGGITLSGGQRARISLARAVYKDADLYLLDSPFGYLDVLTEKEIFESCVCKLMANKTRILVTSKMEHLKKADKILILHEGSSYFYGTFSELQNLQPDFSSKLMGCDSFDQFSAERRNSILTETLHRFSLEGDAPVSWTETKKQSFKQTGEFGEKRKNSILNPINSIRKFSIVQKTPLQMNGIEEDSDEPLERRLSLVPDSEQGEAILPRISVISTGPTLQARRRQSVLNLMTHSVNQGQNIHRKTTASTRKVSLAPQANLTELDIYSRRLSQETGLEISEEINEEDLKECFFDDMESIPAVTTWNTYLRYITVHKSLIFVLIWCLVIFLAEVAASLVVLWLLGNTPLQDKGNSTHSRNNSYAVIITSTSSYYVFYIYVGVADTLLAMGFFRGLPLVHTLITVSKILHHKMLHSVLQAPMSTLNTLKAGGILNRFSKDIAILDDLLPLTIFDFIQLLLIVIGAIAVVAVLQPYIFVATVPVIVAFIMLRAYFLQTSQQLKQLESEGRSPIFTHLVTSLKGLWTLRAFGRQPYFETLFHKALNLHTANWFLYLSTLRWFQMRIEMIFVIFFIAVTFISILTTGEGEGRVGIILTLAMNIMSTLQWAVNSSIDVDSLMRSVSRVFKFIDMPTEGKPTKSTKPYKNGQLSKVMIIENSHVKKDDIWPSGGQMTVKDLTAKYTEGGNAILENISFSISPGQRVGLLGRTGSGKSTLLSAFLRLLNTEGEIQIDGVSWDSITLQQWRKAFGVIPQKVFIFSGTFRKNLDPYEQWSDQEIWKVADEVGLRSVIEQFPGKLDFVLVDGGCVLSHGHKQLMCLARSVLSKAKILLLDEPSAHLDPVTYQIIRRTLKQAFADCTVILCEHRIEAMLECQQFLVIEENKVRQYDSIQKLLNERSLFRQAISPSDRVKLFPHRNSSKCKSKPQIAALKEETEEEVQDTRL

CC(C)C[C@H]1C(=O)N2CCOC[C@@H]2C(=O)N[C@H](Cc2ccccc2)COc2cnc3ccc(F)cc3c2C(=O)N[C@H](C(=O)NCCc2nc(C3CC3)no2)CC(=O)N1C [Example 645, (9S,13S,19aR,22R)-22-benzyl-N-(2-(3-cyclopropyl-1,2,4-oxadiazol-5-yl)ethyl)-5-fluoro-13-isobutyl-12-methyl-7,11,14,20-tetraoxo-7,8,9,10,11,12,13,14,16,17,19,19a,20,21,22,23-hexadecahydro-[1,4]oxazino[3′,4′:6,7][1]oxa[4,7,10,14]tetraazacycloheptadecino[17,16-c]quinoline-9-carboxamide]
EC50 [1]: 289 nM | Emax [2]: 211%

Cc1cc(CCNC(=O)[C@@H]2CC(=O)N(C)[C@@H](CC(C)C)C(=O)N3CCN(C4CC4)C[C@@H]3C(=O)N[C@H](Cc3ccccc3)COc3cnc4ccccc4c3C(=O)N2)on1 [Example 402, (9S,13S,19aR,22R)-22-benzyl-18-cyclopropyl-13-isobutyl-12-methyl-N-(2-(3-methylisoxazol-5-yl)ethyl)-7,11,14,20-tetraoxo-7,8,9,10,11,12,13,14,17,18,19,19a,20,21,22,23-hexadecahydro-16H-pyrazino[2′,11:6,7][1]oxa[4,7,10,14]tetraazacycloheptadecino[17,16-c]quinoline-9-carboxamide]
EC50 [1]: 305 nM | Emax [2]: 314%

COc1noc(CCNC(=O)[C@@H]2CC(=O)N(C)[C@@H](CC(C)C)C(=O)N(C)[C@@H](CC(F)(F)F)C(=O)N[C@H](Cc3ccccc3)COc3ccc4ncc(F)cc4c3C(=O)N2)n1 [Example 940, (3S,7S,10S,13R)-13-benzyl-20-fluoro-7-isobutyl-N-(2-(3-methoxy-1,2,4-oxadiazol-5-yl)ethyl)-6,9-dimethyl-1,5,8,11-tetraoxo-10-(2,2,2-trifluoroethyl)-1,2,3,4,5,6,7,8,9,10,11,12,13,14-tetradecahydro-[1]oxa[4,7,10,14]tetraazacycloheptadecino[16,17-f]quinoline-3-carboxamide]
EC50 [3]: 673 nM | Emax [4]: 298%

COc1cccc2c1C(=O)N[C@H](C(=O)NCCc1cccs1)CC(=O)N(C)[C@@H](CC(C)C)C(=O)N(CCC1CCCCC1)CC(=O)N[C@H](Cc1ccccc1)CO2 [Example 206, (3R,9S,13S)-3-benzyl-7-(2-cyclohexylethyl)-9-isobutyl-16-methoxy-10-methyl-5,8,11,15-tetraoxo-N-(2-(thiophen-2-yl)ethyl)-2,3,4,5,6,7,8,9,10,11,12,13,14,15-tetradecahydrobenzo[p][1]oxa[4,7,10,14]tetraazacycloheptadecine-13-carboxamide]
EC50 [5]: 272 nM | Emax [6]: 164%

CC(C)C[C@H]1C(=O)N(CCC2CCCCC2)CC(=O)N[C@H](Cc2ccccc2)COc2cc3c(cc2C(=O)N[C@H](C(=O)NCCc2ccc4c(c2)OCO4)CC(=O)N1C)OCO3 [Example 2, (7R,13S,17S)-N-(2-(benzo[d][1,3]dioxol-5-yl)ethyl)-7-benzyl-11-(2-cyclohexylethyl)-13-isobutyl-14-methyl-9,12,15,19-tetraoxo-6,7,8,9,10,11,12,13,14,15,16,17,18,19-tetradecahydro-[1,3]dioxolo[4′,5′:4,5]benzo[1,2-p][1]oxa[4,7,10,14]tetraazacycloheptadecine-17-carboxamide]
EC50 [5]: 110 nM | Emax [6]: 150%

COc1cc2c(cc1OC)C(=O)N[C@H](C(=O)NCCc1ccc3c(c1)OCO3)CC(=O)N(C)[C@@H](CC1CCCC1)C(=O)N(CCC1CCCCC1)CC(=O)N[C@H](Cc1ccccc1)CO2 (racemic) [Example 10, (3R,9S,13RS)-N-(2-(benzo[d][1,3]dioxol-5-yl)ethyl)-3-benzyl-7-(2-cyclohexylethyl)-9-(cyclopentylmethyl)-17,18-dimethoxy-10-methyl-5,8,11,15-tetraoxo-2,3,4,5,6,7,8,9,10,11,12,13,14,15-tetradecahydrobenzo[p][1]oxa[4,7,10,14]tetraazacycloheptadecine-13-carboxamide]
EC50 [5]: 82 nM | Emax [6]: 123%

CC(C)C[C@H]1C(=O)N2CCOC[C@@H]2C(=O)N[C@H](Cc2ccccc2)COc2cnc3ccccc3c2C(=O)N[C@H](C(=O)NCCc2ccccc2F)CC(=O)N1C [Example 50, (9S,13S,19aR,22R)-22-benzyl-N-(2-fluorophenethyl)-13-isobutyl-12-methyl-7,11,14,20-tetraoxo-7,8,9,10,11,12,13,14,16,17,19,19a,20,21,22,23-hexadecahydro-[1,4]oxazino[3′,4′:6,7][1]oxa[4,7,10,14]tetraazacycloheptadecino[17,16-c]quinoline-9-carboxamide]
EC50 [5]: 558 nM | Emax [6]: 256%

COc1cccc(CCNC(=O)[C@@H]2CC(=O)N(C)[C@@H](CC(C)C)C(=O)N3CCN(CC(C)C)C[C@@H]3C(=O)N[C@H](Cc3ccccc3)COc3ccc4nc(C)oc4c3C(=O)N2)c1 [Example 619, (8S,12S,18aR,21R)-21-benzyl-12,17-diisobutyl-N-(3-methoxyphenethyl)-4,11-dimethyl-6,10,13,19-tetraoxo-6,7,8,9,10,11,12,13,16,17,18,18a,19,20,21,22-hexadecahydro-15H-oxazolo[4′,5′:5,6]benzo[1,2-p]pyrazino[2,1-f][1]oxa[4,7,10,14]tetraazacycloheptadecine-8-carboxamide]
EC50 [1]: 155 nM | Emax [2]: 322%

CC(C)C[C@H]1C(=O)N2CCCC[C@H]2C(=O)N[C@H](Cc2ccccc2)COc2cnc3ccc(F)cc3c2C(=O)N[C@H](C(=O)NCCc2noc(C3CC3)n2)CC(=O)N1C [Example 520, (9S,13S,19aS,22R)-22-benzyl-N-(2-(5-cyclopropyl-1,2,4-oxadiazol-3-yl)ethyl)-5-fluoro-13-isobutyl-12-methyl-7,11,14,20-tetraoxo-7,8,9,10,11,12,13,14,17,18,19,19a,20,21,22,23-hexadecahydro-16H-pyrido[2′,11:6,7][1]oxa[4,7,10,14]tetraazacycloheptadecino[17,16-c]quinoline-9-carboxamide]
EC50 [1]: 345 nM | Emax [2]: 155%

COc1cccc(CCNC(=O)[C@@H]2CC(=O)N(C)[C@@H](CC(C)C)C(=O)N3CCN(CCCO)C[C@@H]3C(=O)N[C@H](Cc3ccccc3)COc3ccc4ccccc4c3C(=O)N2)c1 [Example 451, (4aR,7R,18S,22S)-7-benzyl-3-(3-hydroxypropyl)-22-isobutyl-N-(3-methoxyphenethyl)-21-methyl-5,16,20,23-tetraoxo-2,3,4,4a,5,6,7,8,16,17,18,19,20,21,22,23-hexadecahydro-1H-naphtho[1,2-p]pyrazino[2,1-f][1]oxa[4,7,10,14]tetraazacycloheptadecine-18-carboxamide]
EC50 [1]: 257 nM | Emax [2]: 307%

COc1cccc(CCNC(=O)[C@@H]2CC(=O)N(C)[C@@H](CC(C)C)C(=O)N(C)[C@H](C)C(=O)N[C@H](Cc3ccccc3)COc3nc(C)nc(OC)c3C(=O)N2)c1 [Example 860, (7S,11S,14R,17R)-17-benzyl-11-isobutyl-4-methoxy-N-(3-methoxyphenethyl)-2,10,13,14-tetramethyl-5,9,12,15-tetraoxo-5,6,7,8,9,10,11,12,13,14,15,16,17,18-tetradecahydropyrimido[5,4-p][1]oxa[4,7,10,14]tetraazacycloheptadecine-7-carboxamide]
EC50 [3]: 578 nM | Emax [4]: 288%

COc1cccc(CCNC(=O)[C@@H]2CC(=O)N(C)[C@@H](CC(C)C)C(=O)N(CCC3CCCCC3)CC(=O)N[C@H](Cc3ccccc3)COc3cccc(OC)c3C(=O)N2)c1 [Example 199, (3R,9S,13S)-3-benzyl-7-(2-cyclohexylethyl)-9-isobutyl-16-methoxy-N-(3-methoxyphenethyl)-10-methyl-5,8,11,15-tetraoxo-2,3,4,5,6,7,8,9,10,11,12,13,14,15-tetradecahydrobenzo[p][1]oxa[4,7,10,14]tetraazacycloheptadecine-13-carboxamide]
EC50 [5]: 230 nM | Emax [6]: 214%

CC(C)C[C@H]1C(=O)N(C)CC(=O)N[C@H](Cc2ccccc2)COc2ccccc2C(=O)N[C@H](C(=O)NCCc2ccc3c(c2)OCO3)CC(=O)N1C [Example 687, (3R,9S,13S)-N-(2-(benzo[d][1,3]dioxol-5-yl)ethyl)-3-benzyl-9-isobutyl-7,10-dimethyl-5,8,11,15-tetraoxo-2,3,4,5,6,7,8,9,10,11,12,13,14,15-tetradecahydrobenzo[p][1]oxa[4,7,10,14]tetraazacycloheptadecine-13-carboxamide]
EC50 [1]: 794 nM | Emax [2]: 107%

CC(C)C[C@H]1C(=O)N2CCCC[C@@H]2C(=O)N[C@H](Cc2ccccc2)COc2ccc3ncc(F)cc3c2C(=O)N[C@H](C(=O)NCCn2ncc(C3CC3)n2)CC(=O)N1C [Example 778, (9S,13S,19aR,22R)-22-benzyl-N-(2-(4-cyclopropyl-2H-1,2,3-triazol-2-yl)ethyl)-5-fluoro-13-isobutyl-12-methyl-7,11,14,20-tetraoxo-7,8,9,10,11,12,13,14,17,18,19,19a,20,21,22,23-hexadecahydro-16H-pyrido[2′,11:6,7][1]oxa[4,7,10,14]tetraazacycloheptadecino[16,17-f]quinoline-9-carboxamide]
EC50 [1]: 141 nM | Emax [2]: 302%

COc1cccc(CCNC(=O)[C@@H]2CC(=O)N(C)[C@@H](CC(C)C)C(=O)N(C)CC(=O)N[C@H](Cc3ccccc3)COc3cc4c(cc3C(=O)N2)OCO4)c1OC (racemic) [Example 151, (7R,13S,17RS)-7-benzyl-N-(2,3-dimethoxyphenethyl)-13-isobutyl-11,14-dimethyl-9,12,15,19-tetraoxo-6,7,8,9,10,11,12,13,14,15,16,17,18,19-tetradecahydro-[1,3]dioxolo[4′,5′:4,5]benzo[1,2-p][1]oxa[4,7,10,14]tetraazacycloheptadecine-17-carboxamide]
Emax [6]: 106%
